Consider four compounds from patent US20140228435A1, “COMPOSITION AND METHOD OF SYNTHESIZING A BIOMOLECULE AND ITS THERAPEUTICS APPLICATIONS” (priority 2013, published 2014).

The term pKa denotes the pH at which an ionisable group is half protonated.

Where “and” joins values, the source holds several entries; their conditions need not be identical. Identical values can stand only once. Like-named read-outs stand apart in the source and are kept apart here.

The nature of data set [1]: Acid dissociation constants (pKa), with van't Hoff temperature calculation. The format is physicochemical. The procedure: Furthermore, the deprotonation of the guanidinium and N(delta)-protonated diaminomethyleneamino groups is endothermic and reversible. Therefore the results are as follows. • 1—At pH less than 7.48 together with 25° C. or less, the concentration of their deprotonated form in the side chain is too little and insignificant to be chemically considered. • 2—Under physiological conditions (pH 7.40 and 37° C.) of a living body, the concentration of L-2-amino-5-diaminomethyleneamino-pentanoic acid not protonated in the side chain and a extremely weak stimulator for autocrine-paracrine IGF-1, is too little and insignificant to stimulates synthesis and secretion of the IGF-1. • 3—At pH less than 7.48 together with 25° C. or less and under physiological conditions (pH 7.40 and 37° C.), 1-arginine and L-2-amino-5-diaminomethyleneamino-pentanoic acid is practically as protonated in the side chain.
In addition, it has a Pka of 8.39 in the protonated 2-amino group at 37° C. calculated based on the integrated form of the van't Hoff equation and ΔH°=43.8 kj/mol=[…] in the deprotonation of the protonated 2-amino group. Consequently, with respect to/regarding the Henderson-Hasselbalch equation, the formula of the J Factor is as follows: • 1—At 25° C., the dominant structural formula of J-Factor at pH more than 2.17 and less than 9.04 is as follows:
Further, in the conversion of N(omega)′-protonated L-arginine to Larginine and a proton, K (equilibrium constant)=Ka (acid dissociation constant). Consequently, the integrated form of the van't Hoff equation is changed as follows:
Log(Ka2/Ka1)=(ΔH°/R)(1/T1−1/T2)
wherein Ka1 is the acid dissociation constant at absolute temperature T1, Ka2 is the acid dissociation constant at absolute temperature T2. Now, the calculated ratios of Ka2 at 100° C., 75° C., 50° C., 37° C. and 30° C. to Ka1 at 25° C. and their pKa's in the conversion are given below, where pKa is a minus the logarithm of the acid dissociation constant. • 1—At 100° C.: […]

The conditions of data set [2]: cited from earlier work.
Data set [3] is described as follows: Second trial (second year): J-Factor withdrawn, unconverted N(omega)′-protonated L-arginine given. Particulars: 1.5 mg per 10 days. In kind it is in vivo, human volunteers. The protocol: After the first year, the applicant withdrew J-Factor and would give the initial N(omega)′protonated L-arginine (reactant) not converted to J-Factor 1.5 mg per 10 days to each volunteer without any other changes and wouldn't make them aware, in order to better compare the reactant and J-Factor.

For data set [4] the following is noted: biosynthetic GH, comparison; cited from earlier work.
A further data set has as its system fatty tissue. Description: Triceps skin fold (TSF) thickness by caliper at right mid-upper arm, one-year volunteer trial. In kind it is in vivo, human volunteers. The procedure: (§1) According to an embodiment of the embodiments herein, N(omega)′-protonated L-arginine was chemically converted into J-Factor ex-vivo. To prevent synthetic J-factor from damaging the alimentary canal after oral administration, it was formulated at a pH value that is safe for the canal like 7.0 which is the safest pH. Then, converted/synthetic produced ex-vivo J-Factor was orally administrated to a small group of 11 volunteers for one year. Each volunteers were given 0.5 mg per 10 days (=1.5 mg/month) and photographs were taken in each case to record the changes in their faces and heads.
(§2) In addition, to eliminate other factors probably influencing results during the trial, they were prevented from exercising and changing previous food schedule such as meat except the J-Factor. Their intake of meat was at least 200 gram per day in the food schedule before the trial and wouldn't change during the trial. Because the amount of N(omega)′-protonated L-arginine in raw meat is more than 1%, their intake of N(omega)′-protonated L-arginine was more than 60000 mg per month through meat without change before and during the trial, which was more than 40000 times the J-Factor intake. Anyway, one-third of N (omega)′-protonated L-arginine is chemically converted into J-Factor and they can't separated from each other. Thus, regardless of food L-arginine, Each volunteer took N(omega)′-protonated L-arginine 3 mg per month together with J-Factor that was less than 1/20000 times the N(omega)′-protonated L-arginine intake through meat without change before and during the trial. Therefore, the physical changes observed in the volunteers weren't caused by N(omega)′-protonated L-arginine.
Anyway, the triceps skin fold (TSF) thickness was measured in millimetres with the caplier at the mid-back of the right mid-upper arm [mid-point between the tip of the shoulder and the tip of the elbow (olecranon process and the acromium)] to evaluate the change in fatty tissue during the trial. The amounts measured and calculated are listed below: […]

Data set [5] deals with muscle (muscular hypertrophy). Description: Mid-upper arm circumference (MUAC) and muscle circumference (MUAMC), muscular hypertrophy, one-year volunteer trial. The format is in vivo, human volunteers. The procedure: as §1, §2
It's derived in cm from the MUAC (mid-upper arm circumference) in cm and the TSF (triceps skin fold) in mm according to the formula “MUAMC=MUAC−(π×TSF/10)”. Finally, the following numbers were measured and concluded: […]

The subject of a further data set is eye's central vision. Description: Eye's central vision examined with the E-chart, one-year volunteer trial. More on the design: scale not given here. To be noted: one value per volunteer. In kind it is in vivo, human volunteers. The procedure:
as §1, §2
Eye' central vision was examined with the E-chart and the following numbers were measured and concluded: […]

The next data set concerns IGF-1mRNA. Description: Expression of IGF-1mRNA in fatty tissue of mid-upper arm by real-time RT-PCR. In kind it is in vivo, human volunteers. The procedure: as §1
as §2, with “Therefore, the physical changes observed in the volunteers weren't caused by N(omega)′-protonated L-arginine.” left out
It's clear that any composition that stimulates the synthesis and secretion of autocrine-paracrine IGF-1 performs it only through increasing the expression of IGF-1mRNA in the cell. Therefore, the expression of IGF-1mRNA was measured in the fatty tissue at the mid-back of the mid-upperarm of the volunteers by real-time RT-PCR (Reverse transcription-polymerase chain reaction) at the beginning and end of the trial and the following numbers were obtained: […]
On the technique in general: In qPCR the cycle at which signal appears reflects the starting amount.

A short description of data set [6]: Physical changes observed in volunteers after one year (photographs of faces and heads). In kind it is in vivo, human volunteers. Particulars: each volunteer after one year of oral J-Factor. The procedure: as §1, §2
Data set [7] in a line: Complications and safety, synthetic J-Factor in the 11 volunteers compared with biosynthetic GH. The format is in vivo, human volunteers. The protocol:
as §1
In fact, all of the above mentioned changes help in preventing or limiting the aging signs. The advantage of using ex-vivo synthesized J-Factor of the embodiments herein when compared to biosynthetic GH is shown in the comparative table below: […]

[8] abbreviates: sum of 11 volunteers, Start to End.
The mark [9] stands for this setting: Start to End (one year), one value per volunteer.

In the case of `N=C(N)NCCCC(N)C(=O)O` [N(omega)′-protonated L-arginine], the pKa in data set [1] (pKa of N(omega)′-protonated guanidino group) is 8.3. Moreover, in data set [2] (room temperature (25° C.)), the “pKa of guanidinium / N(delta)-protonated diaminomethyleneamino group” value is 12.48. For the same compound, in data set [3] (after withdrawal of J-Factor, volunteers not aware), the “physical changes during the second year” value is recorded as “the physical changes would return”. Also, the IGF-1 production entry in data set [3] (conclusion from second trial) was “don't stimulated IGF-1 production”.
On to “Biosynthetic GH: biosynthetic growth hormone, comparator in the advantage table”, for which, in [4], the antigenicity entry was “Antigenic”, the complications entry is given as “Joint swelling Carpal tunnel” and the diabetogenicity entry is listed as “Diabetogenic”.
As to `NC(N)=O` [protonated urea], in data set [2] (25° C., protonated urea), the pKa is 0.18.
Turning to `NC(N)=NCCCC(N)C(=O)O` [J-Factor, N(delta)-protonated L-2-amino-5-diaminomethyleneamino-pentanoic acid], the “TSF (mm) End” value in the data set with fatty tissue (J-Factor 0.5 mg per 10 days orally, End = one year after the start, one value per volunteer (11)) is 20 mm and 3 mm (2×) and 7 mm and 10 mm (2×) and 12 mm and 14 mm and 13 mm (2×) and 17 mm. Also, the “TSF (mm) Decrease” value with fatty tissue (Start to End (one year), J-Factor 0.5 mg per 10 days orally, one value per volunteer) is 18 mm and 3 mm and 4 mm (2×) and 6 mm and 5 mm (2×) and 7 mm (3×) and 19 mm. Besides, in the data set with fatty tissue (setting [8]), the “TSF (mm) Decrease, sum” value was 85 mm and the “TSF Decrease, percent of sum” value was “(41.7%)”. Moreover, the “TSF (mm) End, sum” value in the data set on fatty tissue (sum of 11 volunteers, one year after the start (Start sum 207)) turned out to be 122 mm. Moreover, the “MUAMC (cm) End” value in data set [5] (MUAMC=MUAC−(π×TSF/10), one year after the start, one value per volunteer) was 21.2 cm and 24.7 cm and 28.1 cm and 29.5 cm and 19.9 cm and 27.7 cm and 26.9 cm and 27.2 cm and 24.1 cm and 24.0 cm and 21.6 cm. For the same compound, the “MUAMC (cm) increase” value in [5] (setting [9]) was 1.7 cm and 1.3 cm and 2.0 cm (2×) and 2.1 cm (2×) and 1.1 cm and 2.7 cm and 1.8 cm and 2.8 cm and 2.4 cm. The “MUAC (cm) End” value in [5] (right arm, one year after the start, J-Factor 0.5 mg per 10 days orally, one value per volunteer) is 27.5 cm and 25.6 cm and 29.0 cm and 31.7 cm and 23.0 cm and 31.5 cm and 30.0 cm and 31.6 cm and 28.2 cm and 29.3 cm and 25.9 cm. Further, in data set [5] (setting [8]), the “MUAMC (cm) increase, sum” value is given as 22.0 cm and the “MUAMC increase, percent of sum” value was “(8.7%)”. For the same compound, the “MUAMC (cm) End, sum” value in [5] (sum of 11 volunteers, one year after the start (Start sum 252.9)) amounted to 274.9 cm. In addition, in the data set on eye's central vision (Start to End (one year)), the “Left Eye' central vision increase” value was “ZERO (2×) and 1 (4×) and 9 and 3 (2×) and 2 (2×)”; the “Right Eye' central vision increase” value is “ZERO (3×) and 1 (2×) and 3 and 2 (4×) and 4”. Further, in the data set on eye's central vision (one year after the start), the “Left Eye' central vision End” value was 10 (8×) and 9 and 3 and 5; the “Right Eye' central vision End” value was 10 (8×) and 8 and 6 and 3. Besides, the “IGF-1 mRNA increase” value in the data set with IGF-1mRNA (setting [9]) is “yes”. Moreover, the IGF-1 production result with IGF-1mRNA (conclusion from one-year trial with ex-vivo synthesized J-Factor) is recorded as “stimulated IGF-1 production”. For the same compound, in the data set with IGF-1mRNA (fatty tissue at mid-back of mid-upper arm, one year after the start, one value per volunteer), the “IGF-1 mRNA (copy/mg) End” value was 1.8 × 10^7 copy/mg and 7.7 × 10^7 copy/mg and 1.2 × 10^10 copy/mg and 9.2 × 10^6 copy/mg and 7.2 × 10^8 copy/mg and 6.0 × 10^8 copy/mg and 2.1 × 10^9 copy/mg and 1.0 × 10^10 copy/mg and 5.2 × 10^7 copy/mg and 6.3 × 10^6 copy/mg and 1.1 × 10^9 copy/mg. Further, in data set [6], the “change in fatty tissue e.g. in abdomen” value is “decrease in fatty tissue e.g. in abdomen”, the “eye's central vision” value is listed as “improvement in eye's central vision”, the hair growth entry is recorded as “hair growth” and the muscular hypertrophy entry was “muscular hypertrophy”. Further, the “tone and color of facial skin” value in data set [6] was “improved tone and color of facial skin”. The pKa in data set [1] (pKa of guanidinium / N(delta)-protonated diaminomethyleneamino group) was 11.7. The pKa in data set [1] (pKa of protonated 2-amino group) was 8.39. Further, the “complications such as joint swelling, carpal tunnel syndrome or joint pain” value in [7] (in the 11 volunteers) is given as “invention showed no complications”. For the same compound, in data set [7] (synthetic J-Factor), the antigenicity result was “Non-antigenic” and the diabetogenicity entry is given as “Non-diabetogenic”. In data set [2] (room temperature (25° C.)), the “pKa of carboxyl group” value is on record as 2.17, the “pKa of guanidinium / N(delta)-protonated diaminomethyleneamino group” value is recorded as 12.48 and the “pKa of protonated 2-amino group” value was 9.04.
